Columns and labels:
[1] = test system: herpes virus-specific thymidine kinase (TK); conditions: hypothesis on mode of action; cited from earlier work
[2] = test system: herpes virus-specific DNA-polymerase (DP); conditions: hypothesis on mode of action; cited from earlier work
[3] = test system: Cellular TK and DP enzymes; conditions: cited from earlier work
[4] = test system: HSV mutants lacking the ability to induce DP (DP-mutants); conditions: cited from earlier work
human herpesviruses = conditions: cited from earlier work
normal host cells = conditions: cited from earlier work
HSV-1-Patton = experiment: Plaque reduction / viral plaque titration, HSV-1-Patton in HFF cells
Experimental: (§1) Human fetal fibroblasts (HFF) derived from fetal tissues were used in this study. Cells were grown and maintained in Basal Medium Eagle (BME) supplemented with 0.112% sodium bicarbonate, 2mML-glutamine, 2mg % Neomycin and 20% (vol/vol) calf serum.
(§2) A viral plaque titration method (Roizman and Roane, 1961) was used to deteremine the titer of the HSV strain. Tissue culture dishes (35 by 10mm, Corning) were seeded with cells and used for assays when they were approximately 75% monolayer. Volumes (0.2ml) of logarithmic dilutions of the virus strain were inoculated onto each of two tissue culture dishes and adsorbed for 1 hr with intermittent shaking, the inoculum was removed and 2ml of 20% BME containing 0.5% human immune serum globulin was added. After a 48 hr. incubation period at 36° C. in a 5% CO2 atmosphere, the overlay medium was removed, and the cell sheets were stained with a 0.05% aqueous crystal violet solution. The plaque numbers were counted with the aid of a Nikon profile projector which magnified the dishes 10X. Duplicate results were averaged, and the number of plaque-forming units (PFU) was calculated. The virus titre is thus expressed as a number of plaque forming units to be seen after growth under these conditions.
As antiviral drugs in these experiments, there were used acycloguanosine (ACG), phosphonoacetic acid (PAA), bromovinyl deoxyuridine (BVDU), phosphonoformic acid (PFA) and 9-[[2-hydroxy-1-(hydroxymethyl)ethoxy]methyl]guanine (G*). Stock solutions, 3mg/ml, of each drug were prepared as follows, kept at -20° C., and appropriate dilutions thereof were made in 20% BME just before usage:
In order to make comparisons between the activities of the various drugs and combinations, experiments were conducted by plaque titration to determine for each drug its viral ED-50 (i.e. the concentration thereof which inhibits HSV plaque formation by 50% in the HFF cells, as compared with cell cultures in the absence of the drug). For this purpose, tissue culture dishes (35 by 10 mm) with HFF cell monolayers at 75% confluence were inoculated with approximately 50 plaque-forming units of virus per 0.2 ml, and the virus was allowed to adsorb for 1 hr with intermittent shaking. After removal of the inoculum, 2 ml of 20% BME with 0.5% immune globulin and threefold dilutions of the appropriate drug were added to duplicate dishes. One set of dishes received no drug and was later used for the "no-drug control". After a 48 hr incubation period at 36° C. in a 5% CO2 atmosphere, the overlay medium was removed, the cells were stained as described above, and plaques were counted. After averaging the counts of duplicate plates, the fraction of plaques emerging in the presence of each drug dilution was calculated as a percent of the control. Each drug titration was plotted on semilogarithmic graph paper, with the number of plaques per dish as vertical axis and the drug concentration as horizontal axis. The viral ED-50 concentration was that amount of drug per ml of overlay medium that inhibited plaque numbers by 50%, compared with no-drug controls, and this was read off the graphic plot of the data.
Then combinations of the drugs were tested for activity by viral plaque titration, at concentrations which were multiples of the ED-50, of the individual drugs. In combinations involving G*, BVDU and AGC, a concentration ten times that of its ED-50 was used in the combination. […] In respect of PAA, a concentration of five times ED-50 was used, to avoid cell toxicity problems.

[5] = test system: HSV mutants lacking the ability to induce DP (DP-mutants); experiment: Activity against HSV mutants lacking the ability to induce DP (statement); parameters: species or system Herpes simplex virus
HSV-2-EL 1 = conditions: Table 3, HFF cells, G* 2.0 μg/ml, PAA 76 μg/ml, alone or combined; for Virus titer: no-drug control 170
Experimental: as §1
(§3) HSV-2-EL 1, HSV-2-EL 3, HSV-2-EL 4, HSV-2-EL 6, HSV-1-EL 11 and HSV-1-227 are recent clinical isolates.
as §2
(§4) Then combinations of the drugs were tested for activity by viral plaque titration, at concentrations which were multiples of the ED-50, of the individual drugs. In combinations involving G*, BVDU and AGC, a concentration ten times that of its ED-50 was used in the combination. This was intended to ensure a concentration sufficiently high to limit the number of partially drug-resistant virus plaques to a small fraction in respect of each drug of the combination. In respect of PAA, a concentration of five times ED-50 was used, to avoid cell toxicity problems. The drugs were individually plaque titrated at the same concentrations for comparison purposes.
(§5) The experiments described in Examples 1 and 2 were essentially repeated, but using the drugs G* and PAA alone and in combinations against samples of HFF cells each infected with one of six HSV strains, two of which were type 1 and four of which were type 2. Plaque titration methods as described above were used.

HSV-1-EL 11 = conditions: Table 3, HFF cells, G* 0.4 μg/ml, PAA 25 μg/ml, alone or combined; for Virus titer: no-drug control 8.0
Experimental: as §1, §3, §2, §4, §5

HSV-1-227 = experiment: Viral plaque titration, HSV-1-227 in HFF cells; conditions: Table 3, G* 2.0 μg/ml, PAA 80 μg/ml, alone or combined; for Virus titer: no-drug control 28
Experimental: as §1, §3, §2, §4, §5

HSV-2-EL 4 = experiment: Viral plaque titration, HSV-2-EL 4 in HFF cells; conditions: alone or combined; for Virus titer: no-drug control 750
Experimental: as §1, §3, §2, §4
(§6) In this example, combinations of G* and phosphonoformic acid PFA were tested, by plaque titration methods, for activity against a variety of herpesvirus strains in HFF cells, using procedures previously described. A stock solution of PFA was made up ahead of time, by dissolving 3 mg PFA in 1 ml of 20% BME, and stored at -20° C. It was appropriately diluted in 20% BME just before usage. Two herpesvirus type 2 strains and one herpesvirus type 1 strain were tested.
as §5

HSV-2-EL 6 = experiment: Viral plaque titration, HSV-2-EL 6 in HFF cells; conditions: alone or combined
Experimental: as §1, §3, §2, §4, §6, §5

HSV-2-EL 3 = experiment: Viral plaque titration, HSV-2-EL 3 in HFF cells; conditions: Table 3, G* 2.0 μg/ml, PAA 82 μg/ml, alone or combined; for Virus titer: no-drug control 77
Experimental: as §1, §3, §2, §4, §5

[6] = topical formulation, drug concentrations in excess of 100mM; cited from earlier work
[7] = Table 1, multiplicity of infection less than one, G* 1.2, BVDU 0.11, ACG 2.0, PAA 250 μg/ml alone, same concentrations in combinations, no-drug control 147
[8] = Table 1, ratio of control titer to drug titer, G* 1.2, BVDU 0.11, ACG 2.0, PAA 250 μg/ml alone, same concentrations in combinations
[9] = Table 2, G* 3.0 μg/ml, PFA 80 μg/ml
[10] = Table 3, G* 2.0 μg/ml, PAA 90 μg/ml
[11] = Table 2, G* 0.7 μg/ml, PFA 80 μg/ml
[12] = Table 2, G* 0.7 μg/ml, PFA 80 μg/ml, no-drug control 150
[13] = Table 3, G* 0.6 μg/ml, PAA 90 μg/ml
[14] = Table 3, G* 0.6 μg/ml, PAA 90 μg/ml, no-drug control 180
[15] = Table 2, G* 0.7 μg/ml, PFA 80 μg/ml, alone or combined
[16] = Table 2, G* 0.7 μg/ml, PFA 80 μg/ml, alone or combined, no-drug control 3400

Compound: Nc1nc2c(ncn2COCCO)c(=O)[nH]1 [ACG, 9-[2-hydroxyethoxymethyl]guanine]
- Interaction with viral thymidine kinase [1]: interaction with the herpes virus-specific thymidine kinase (TK) resulting in phosphorylation of the acycloguanosine
- Interaction with viral DNA polymerase [2]: inhibits the action of the herpes virus-specific DNA-polymerase (DP)
- Effect on cellular TK and DP enzymes [3]: only slightly affected
- Resistance of DP-mutants of HSV to drug [4]: highly resistant
- Activity against herpesviruses in prior art (human herpesviruses): relatively high antiviral activity
- Toxicity for uninfected cells (normal host cells): relatively low toxicity for uninfected cells
- Virus titer (HSV-1-Patton; [7]): 4.7 PFU/ml × 10^5
- Fold titer reduction (HSV-1-Patton; [8]): 31 fold

Compound: Nc1nc2c(ncn2COC(CO)CO)c(=O)[nH]1 [G*]
- Inhibition of DP-mutants of HSV [5]: able to inhibit HSV mutants lacking the ability to induce DP
- Fold titer reduction (HSV-2-EL 1): 19 fold
- Virus titer (HSV-2-EL 1): 8.9 pfu/ml × 10^5
- Fold titer reduction (HSV-1-EL 11): 22 fold
- Virus titer (HSV-1-EL 11): 0.37 pfu/ml × 10^5
- Interaction with viral thymidine kinase [1]: inhibits the activity of the viral thymidine kinase enzyme
- Interaction with viral DNA polymerase [2]: not involved in the activity of virus-specific DNA-polymerase
- Fold titer reduction (HSV-1-227): 110 fold
- Virus titer (HSV-1-227): 0.25 pfu/ml × 10^5
- Fold titer reduction (HSV-2-EL 4; [9]): 36 fold
- Virus titer (HSV-2-EL 4; [9]): 21 pfu/ml × 10^5
- Fold titer reduction (HSV-2-EL 4; [10]): 130 fold
- Virus titer (HSV-2-EL 4; [10]): 5.9 pfu/ml × 10^5
- Fold titer reduction (HSV-2-EL 6; [11]): 3.8 fold
- Virus titer (HSV-2-EL 6; [12]): 40 pfu/ml × 10^5
- Fold titer reduction (HSV-2-EL 6; [13]): 200 fold
- Virus titer (HSV-2-EL 6; [14]): 0.90 pfu/ml × 10^5
- Fold titer reduction (HSV-2-EL 3): 7.7 fold
- Virus titer (HSV-2-EL 3): 10.0 pfu/ml × 10^5
- Virus titer (HSV-1-Patton; [7]): 1.1 PFU/ml × 10^5
- Fold titer reduction (HSV-1-Patton; [8]): 130 fold
- Fold titer reduction (HSV-1-Patton; [15]): 24 fold
- Virus titer (HSV-1-Patton; [16]): 140 pfu/ml × 10^5

Compound: O=CC[C@@H](O)[C@H](O)[C@H](O)CO [2DB, 2-deoxy-D-glucose]
- Activity against herpesviruses in prior art (human herpesviruses): some demonstrated activity against human herpesviruses

Compound: Nc1ncnc2c1ncn2[C@@H]1O[C@H](CO)[C@@H](O)[C@@H]1O [ara-A, Adenine arabinoside]
- Activity against herpesviruses in prior art (human herpesviruses): some demonstrated activity against human herpesviruses

Compound: O=c1[nH]c(=O)n([C@H]2C[C@H](O)[C@@H](CO)O2)cc1I [IDU, 5-iododeoxyuridine]
- Activity against herpesviruses in prior art (human herpesviruses): effective only against herpes infections of the eyes
- Side effects / toxicity to normal cells (normal host cells; prior art): undesirable side effects, associated with toxicity to normal cells

Compound: O=C(O)CP(=O)(O)O [PAA, phosphonoacetic acid]
- Fold titer reduction (HSV-2-EL 1): 500 fold
- Virus titer (HSV-2-EL 1): 0.34 pfu/ml × 10^5
- Fold titer reduction (HSV-1-EL 11): 2.9 fold
- Virus titer (HSV-1-EL 11): 2.8 pfu/ml × 10^5
- Interaction with viral DNA polymerase [2]: interference with viral DNA polymerase, not viral thymidine kinase
- Resistance of DP-mutants of HSV to drug [4]: highly resistant
- Skin irritation [6]: skin irritant
- Activity against herpesviruses in prior art (human herpesviruses): some demonstrated activity against human herpesviruses
- Fold titer reduction (HSV-1-227): 26 fold
- Virus titer (HSV-1-227): 1.1 pfu/ml × 10^5
- Fold titer reduction (HSV-2-EL 4; [10]): 7500 fold
- Virus titer (HSV-2-EL 4; [10]): 0.10 pfu/ml × 10^5
- Fold titer reduction (HSV-2-EL 6; [13]): 5.8 fold
- Virus titer (HSV-2-EL 6; [14]): 31.0 pfu/ml × 10^5
- Fold titer reduction (HSV-2-EL 3): 210 fold
- Virus titer (HSV-2-EL 3): 0.36 pfu/ml × 10^5
- Virus titer (HSV-1-Patton; [7]): 3.2 PFU/ml × 10^5
- Fold titer reduction (HSV-1-Patton; [8]): 50 fold

Compound: O=C(O)P(=O)(O)O [PFA, phosphonoformic acid]
- Interaction with viral DNA polymerase [2]: interference with viral DNA polymerase, not viral thymidine kinase
- Skin irritation [6]: do not appear harmful
- Activity against herpesviruses in prior art (human herpesviruses): some demonstrated activity against human herpesviruses
- Fold titer reduction (HSV-2-EL 4; [9]): 2,700 fold
- Virus titer (HSV-2-EL 4; [9]): 0.28 pfu/ml × 10^5
- Fold titer reduction (HSV-2-EL 6; [11]): 3.1 fold
- Virus titer (HSV-2-EL 6; [12]): 48 pfu/ml × 10^5
- Fold titer reduction (HSV-1-Patton; [15]): 4.5 fold
- Fold titer reduction (HSV-1-Patton; Table 2, G* 0.7 μg/ml, PFA 80 μg/ml, alone or combined, listed as PFF): 750 fold
- Virus titer (HSV-1-Patton; [16]): 750 pfu/ml × 10^5

Compound: O=c1[nH]c(=O)n([C@H]2C[C@H](O)[C@@H](CO)O2)cc1/C=C/Br [BVDU, bromovinyl deoxyuridine]
- Virus titer (HSV-1-Patton; [7]): 2.1 PFU/ml × 10^5
- Fold titer reduction (HSV-1-Patton; [8]): 70 fold
